Results: patent publication US20160361444A1, “USE OF IVABRADINE AS DIAGNOSTIC AGENT IN THE METHOD OF CORONARY ANGIOGRAPHY BY MULTISLICE COMPUTED TOMOGRAPHY” (LES LABORATOIRES SERVIER, priority 2008, published 2016)

Assay: Clinical study: effect of i.v. administration of ivabradine hydrochloride on heart rate in healthy volunteers
Format: in vivo
Details: i.v. bolus of ivabradine hydrochloride solution containing 16 mg ivabradine base, resting heart rate (lying position) at T0+30 min, vs placebo control group
Protocol: Clinical Study. Effect of i.v. Administration of Ivabradine Hydrochloride on Heart Rate in Healthy Volunteers.
Resting heart rate (in a lying position) is measured at T0. The subjects are then given an i.v. bolus of a solution of ivabradine hydrochloride containing 16 mg of ivabradine base (treated group, n=8) or of placebo (control group, n=2). The resting heart rate (in a lying position) is again measured at T0+30 min.

## COc1cc2c(cc1OC)CC(=O)N(CCCN(C)C[C@H]1Cc3cc(OC)c(OC)cc31)CC2 [ivabradine]
  heart rate lower than the heart rate in the control group: 16%
